From a melting point compilation (Tetko et al.; mined from patent text by program, amines drawn as free bases though some values may be those of a salt)

Row | Compound | melting point
1 | CN1Cc2c(C(N)=O)ncn2-c2ccc(F)cc2C1=O | 272 to 273 °C
2 | CCCNC(=O)Nc1ccc(-c2cc3[nH]c(=O)[nH]c3nc2C)cc1 | > 300 °C
3 | CC(C)(C)c1cc(-c2cc(C(C)(C)C)cc(-n3nc4ccccc4n3)c2O)c(O)c(-n2nc3ccccc3n2)c1 | 234 °C
4 | Cc1ccsc1C(Cc1ccccc1N)N(C)C(=O)C(C)C (centres undefined) | 137 to 141 °C
5 | CCCN(c1ncccc1N)C1CCN(Cc2ccccc2)CC1 | 73 to 74 °C
6 | CC(C)Oc1ccc(NC(=O)OCc2cc3cc(-c4ccc(F)cc4)ccc3o2)c(C(=O)O)c1 | 195 to 196 °C
7 | CCOC(=O)OC1=C(c2c(C)cc(C)cc2C)C(=O)NC1C1CCN(OC)CC1 (centres undefined) | 154 to 155 °C
8 | CC1(OC(=O)c2ccccc2)C(OC(=O)c2ccccc2)OC(COC(=O)c2ccccc2)C1OC(=O)c1ccccc1 (centres undefined) | 201 to 209 °C
9 | O=C(Nc1ccccc1Oc1ccc(Cl)cc1Cl)C1CCN(C(=O)c2ccccc2)CC1 | 176 to 177 °C
10 | O=C(CCCI)ON1C(=O)CCC1=O | 86 to 87 °C
11 | NC(=O)C[C@H](NC(=O)c1ccccn1)C(=O)O | 171 to 172 °C
12 | CN(Cc1ccc(NC(=O)C2=Cc3cc(-c4ccc(Cl)cc4)ccc3S(=O)(=O)CC2)cc1)C1CCOCC1 | 247 to 250 °C
13 | NC(=O)NCc1ccc(CN(CC(=O)O)C(=O)[C@@H](CCCNC(N)=N[N+](=O)[O-])NC(=O)C(c2ccccc2)c2ccccc2)cc1 | 78 to 81 °C
14 | Clc1ccc2c(c1)C(c1ccccc1)=NCC1CNCCN21 (centres undefined) | 132 to 135 °C
15 | Clc1ccc2c(c1)N=C(c1ccncc1)c1ccccc1O2 | 122 °C
16 | S=C1Nc2cccnc2Nc2cscc21 | 255 to 260 °C
17 | O=C(NCCc1nc(-c2ccncn2)cc(=O)[nH]1)OCc1ccccc1 | 252 to 254 °C
18 | O=C(O)CNC(=O)C(CSC(=O)c1ccccc1)SC(=O)c1ccccc1 (centres undefined) | 160 to 163 °C
19 | Fc1ccc(C(=C2SCSCS2)c2ccc(F)cc2)cc1 | 153 to 154 °C
20 | NC(=O)CC1CN=C(c2cc3cccc(NS(=O)(=O)c4cccs4)c3[nH]2)S1 (centres undefined) | 130 to 131 °C
21 | Cc1c(C)c2c(c(C)c1OC(=O)CCC(=O)O)C(c1ccc(C(C)C)cc1)C(C)(C)O2 (centres undefined) | 141 to 142 °C
22 | O=C(C[C@H](C(=O)N[C@H](CO)Cc1ccccc1)n1cc(-c2ccc(-c3ccccc3)cc2)cn1)OCc1ccccc1 | 116 to 117 °C
23 | CCOCn1c(C(F)(F)F)nc2cc(Cl)c(Cl)cc21 | 89 to 92 °C
24 | CC(=O)CCCC(=O)NC(CC(=O)C(=O)C(C)(Cc1c[nH]c2ccccc12)NC(=O)OC1C2CC3CC(C2)CC1C3)c1ccccc1 (centres undefined) | 69 to 71 °C
25 | Nc1nc2ccccc2c2c1ncn2COCCO | 210 to 212 °C

Row | Compound | melting point
26 | O=Cc1c[nH]cc1-c1ccccc1Cl | 147 to 148 °C
27 | CNCc1cccc2c1ccn2S(=O)(=O)c1ccccc1 | 75 to 77 °C
28 | O=C1c2ccccc2C(=O)N1CCS(=O)(=O)CCO | 120 to 122 °C
29 | Cn1nc(C#N)c(Nc2cc(Cl)c(Cl)cc2[N+](=O)[O-])n1 | 148 to 150 °C
30 | COC(=O)c1sccc1S(=O)(=O)NC(=O)Nc1nc(C)nc(C)n1 | 158 to 178 °C
31 | O=C(COc1ccc(Cl)c(Cl)c1)N1CCC2(CC1)Cn1cc([N+](=O)[O-])nc1O2 | 218 to 220 °C
32 | C[Si](C)(C)C#Cc1cc(F)cnc1N | 65 °C
33 | O=C(Cl)c1c(Cl)c(Cl)c(Cl)c2c(Cl)c(Cl)c(Cl)c(Cl)c12 | 163 to 165 °C
34 | NCc1cccc(C2CCN(c3cc4c(cc3F)c(=O)c(C(=O)O)cn4C3CC3)C2)c1 (centres undefined) | 250 to 253 °C
35 | COC(=O)c1cc(C(=O)c2c(C)c(-c3cccc(OCC(=O)O)c3)c3ccccn23)ccc1N | 160 °C
36 | CN(C)CCc1ccc(OCCCN2C(=O)c3ccccc3C2=O)cc1 | 81 to 82 °C
37 | Cc1cc(-c2nc3cccnn3c2-c2ccnc(NC(=O)c3ccccc3C)c2)ccc1F | 265 to 266 °C
38 | CCOc1ccc2c(c1)c(I)c1n2CCC1 | 128 to 129 °C
39 | CC1(c2ccccc2)CN(c2ccnc(NC(=O)NCc3ccccn3)c2)C(=O)O1 (centres undefined) | 194 to 195 °C
40 | CCC1CC(=S)N(c2ccc3oc(=O)c(N4C(=O)C(CC)CC4=S)cc3c2)C1=O (centres undefined) | 128 to 131 °C
41 | O=C1C=C(CC2CCCC(C(F)(F)F)C2)C(=O)c2ccccc21 (centres undefined) | 65 °C
42 | CC1=Cc2ccc(Cl)cc2C(c2ccc([N+](=O)[O-])c(C)c2)=NN1C(=O)NC1CC1 | 221 to 223 °C
43 | FC(F)(F)c1nc(-c2ccccc2)c(-c2ccccc2)s1 | 94 to 97 °C
44 | COc1nc2ccc(Br)cc2c2c1Cc1ccccc1-2 | 150 to 152 °C
45 | O=C(O)CCSCC(=O)c1ccc2[nH]c(=O)[nH]c2c1 | 212 to 215 °C
46 | CCC1(CC)C(=O)Nc2ccc(-c3ccc(C#N)n3C)cc21 | 233 to 235 °C
47 | OC(CCc1cccc(Br)c1)c1cnc2sc3c(n12)CCCCC3 (centres undefined) | 137 to 141 °C
48 | Fc1ccccc1Cn1nnc2c(NC3CC3)nccc21 | 245 to 247 °C
49 | COc1cc2ccc(C(=O)CBr)cc2cc1OC | 120 to 122 °C
